Measurements from patent publication US11311632B2, “Viral vectors for prophylaxis and therapy of hemoglobinopathies” (Cornell University, priority 2015, dated 2022).
Read-outs that look alike come from different tables or passages of the source.

Key:
[1] = system: CD34+-derived SCD erythroid cells; assay: Hemoglobin (HbF, HbS, HbA2) content by HPLC in differentiated CD34+-derived SCD erythroid cells; format: cell-based, human
Source text: To obtain the data presented here, we used the lentiviral vector pCL-ZF-Ldb1, (FIG. 11, top vector map), which carries a zinc-finger protein that specifically binds the γ-globin promoters, fused to the self-association (SA) domain of Ldb1, as well as a green fluorescent protein under the control of the erythroid specific ankyrin promoter. […] Cell, 2014. 158(4): p. 849-60].
In particular, we analyzed the mRNA and protein content of erythroblasts derived from 10 SCD subjects. CD34+ cells isolated from peripheral blood mononuclear cells (PBMCs) were frozen and used for independent replicate experiments. Infection with pCL-ZF-Ldb1 was performed on pro-erythroblast within the first 10 days of the expansion phase.
A scheme of the experimental procedures is illustrated in FIG. 16. […] Exp Hematol, 2005. 33(12): p. […] J Clin Invest, 2008. 118(1): p. […] Nat Med, 2013. 19(3): p. 291-4]. Studies were performed on day 8 of differentiation phase, at the orthochromatophilic stage when high amounts of hemoglobin were accumulated.
(§1) CD34+ cells selection from blood samples was performed by immunomagnetic separation, using the CD34 microbeads kit (Miltenyi Biotec Inc., Auburn, Calif.). These cells were then expanded following a modified version of the protocol described by Leberbauer and colleagues. Cells were seeded in 5 mL of serum-free StemSpan with 50 μL of StemSpan CC-100 cytokine cocktail (both from Stemcell Technologies, Vancouver, BA, Canada), 2 U/mL Erytrhopoietin (Amgen, Thousand Oaks, Calif.), 10^-6 M dexamethasone (Sigma) and 1% penicillin streptomycin. CD34+ cultures were kept undifferentiated by refreshing the medium twice a week and density gradient centrifugation was used to remove both dead and spontaneously differentiating cells. At this stage cells were either frozen (with 50% characterized Hyclone FBS, 10% DMSO, Sigma, and 40% Iscove's Modified DMEM, Cellgro), or used for experiments. After 10 days in phase I, cells were transferred into phase II media containing α-modified essential medium supplemented with 30% fetal calf serum and 10^-5 M β-mercaptoethanol. Erythropoietin was added (5 U/mL) to stimulate erythroid differentiation.

SCD erythroblasts = assay: Erythroid cell count / viability (benzidine+ cells) of treated SCD erythroblasts; conditions: same treatments and doses as HbF induction comparison
Protocol: as §1

[2] = SCD erythroid cells, summary in description
[3] = day 8 of differentiation, same treatments and doses as net HbF increase

SMILES | induction of HbF (qualitative summary) [1] | net HbF increase [1] | net HbS decrease [1] | induction of HbF (qualitative summary) [1, 2] | net HbS decrease [1, 3] | viability compared to untreated samples (SCD erythroblasts) | net HbS decrease ([1]; 192 h) | net HbF increase ([1]; 192 h, 30 µM)
N[C@@H]1C[C@H]1c1ccccc1 (racemic) [tranyl-cypromine, tranylcypromine] | intermediate effect | 8.08%±6.28 | −6.93%±6.64 |  |  |  |  | 
CCCC(=O)[O-].[Na+] [butyrate, sodium butyrate] |  | 4.84%±5.03 |  | marginal HbF induction | −4.90%±7.94 | reduced viability |  | 
NC(=O)NO [hydroxyurea] |  |  |  | marginal HbF induction | −3.48%±4.68 | reduced viability |  | 
Nc1cccc2c1C(=O)N(C1CCC(=O)NC1=O)C2=O (stereo not shown) [pomalidomide] |  |  |  |  |  | reduced viability | 11.61−%±9.27 | 11.84%±9.02
